Data taken from patent publication US8193169B2, “(20R)-2α-methyl-19,26,2-trinor-vitamin D analogs” (Wisconsin Alumni Research Foundation, priority 2006, dated 2012).

Experiments:
HL-60 cells = assay: HL-60 cell differentiation (nitro blue tetrazolium reduction); assay type: cell-based, human; details: for EC50: HL-60 cells, differentiation into monocytes, FIG. 2
Protocol: The study drugs were dissolved in ethanol and the concentrations determined using UV spectrophotometry. Serial dilutions were prepared so that a range of drug concentrations could be tested without changing the final concentration of ethanol (≦0.2%) present in the cell cultures.
Human promyelocytic leukemia (HL60) cells were grown in RPMI-1640 medium containing 10% fetal bovine serum. The cells were incubated at 37° C. in the presence of 5% CO2.
HL60 cells were plated at 1.2×10^5 cells/ml. Eighteen hours after plating, cells in duplicate were treated with drug. Four days later, the cells were harvested and a nitro blue tetrazolium reduction assay was performed (Collins et al., 1979; J. Exp. Med. 149:969-974). The percentage of differentiated cells was determined by counting a total of 200 cells and recording the number that contained intracellular black-blue formazan deposits. Verification of differentiation to monocytic cells was determined by measuring phagocytic activity (data not shown).

[1] = system: 24-hydroxylase (24Ohase) gene promoter; assay: In vitro transcription assay, luciferase reporter in ROS 17/2.8 (bone) cells; assay type: cell-based; details: for EC50: ROS 17/2.8 cells, 24-hydroxylase promoter-luciferase, FIG. 3, read-out: EC50, transcriptional activity in bone cells
Protocol: Transcription activity was measured in ROS 17/2.8 (bone) cells that were stably transfected with a 24-hydroxylase (24Ohase) gene promoter upstream of a luciferase reporter gene (Arbour et al., 1998). Cells were given a range of doses. Sixteen hours after dosing the cells were harvested and luciferase activities were measured using a luminometer.
RLU=relative luciferase units.

[2] = Bone calcium mobilization (serum calcium) in vitamin D-deficient rats; assay type: in vivo, Sprague-Dawley rats; details: vitamin D-deficient rats on 0.02% Ca diet, FIG. 4
Protocol: (§1) Male, weanling Sprague-Dawley rats were placed on Diet 11 (0.47% Ca) diet+AEK oil for one week followed by Diet 11 (0.02% Ca)+AEK oil for 3 weeks. The rats were then switched to a diet containing 0.47% Ca for one week followed by two weeks on a diet containing 0.02% Ca. Dose administration began during the last week on 0.02% calcium diet. Four consecutive ip doses were given approximately 24 hours apart. Twenty-four hours after the last dose, blood was collected from the severed neck and the concentration of serum calcium determined as a measure of bone calcium mobilization. The first 10 cm of the intestine was also collected for intestinal calcium transport analysis using the everted gut sac method.

[3] = Intestinal calcium transport, everted gut sac method, in vitamin D-deficient rats; assay type: in vivo, Sprague-Dawley rats; details: 35,100 pmol/day ip for 4 consecutive days, FIG. 5
Protocol: as §1

[4] = biological target: T1, full-length recombinant rat vitamin D receptor (Rattus norvegicus, UniProt P13053); details: compared to 1,25(OH)2D3
T1 sequence (P13053 1-423): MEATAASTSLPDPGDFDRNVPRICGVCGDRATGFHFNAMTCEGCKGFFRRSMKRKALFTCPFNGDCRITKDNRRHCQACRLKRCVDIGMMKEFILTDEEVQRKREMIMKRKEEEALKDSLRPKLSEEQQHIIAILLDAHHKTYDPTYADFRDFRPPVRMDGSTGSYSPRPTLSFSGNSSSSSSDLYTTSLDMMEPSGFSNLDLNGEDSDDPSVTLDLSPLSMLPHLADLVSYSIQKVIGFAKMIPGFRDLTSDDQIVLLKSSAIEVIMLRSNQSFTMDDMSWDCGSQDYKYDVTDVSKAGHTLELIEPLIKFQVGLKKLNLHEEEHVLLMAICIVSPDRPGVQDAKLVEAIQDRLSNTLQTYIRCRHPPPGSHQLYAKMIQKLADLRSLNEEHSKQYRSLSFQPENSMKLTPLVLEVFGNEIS

[5] = biological target: T1, full-length recombinant rat vitamin D receptor; assay: biochemical
[6] = compared to 1α,25-dihydroxyvitamin D3

EC50 (HL-60 cells; Homo sapiens) [nM] | VDR binding potency relative to 1,25(OH)2D3 (times less potent) [4] | Ki [5] [nM] | SMILES | HL-60 cell differentiation activity relative to 1α,25-dihydroxyvitamin D3 (times less activity) (HL-60 cells; [6]) [times] | EC50 [1] [nM] | Transcriptional activity in bone cells relative to 1α,25-dihydroxyvitamin D3 (times less) [1, 6] | Bone calcium mobilization activity (serum calcium) ([2]; 35,100 pmol/day ip for 4 consecutive days) | Intestinal calcium transport activity [3] | EC50 (HL-60 cells) [nM] | Bone calcium mobilization activity (serum calcium) ([2]; 780 pmol/day) | Serum calcium levels ([2]; all dosages)
30 | about 10 times | 1 | CC(CCCCO)C1CCC2C(=CC=C3CC(O)C(C)C(O)C3)CCCC21C [B-9, (20R)-2α-methyl-19,26,27-trinor-1α,25-dihydroxyvitamin D3] | ~10 | 10 | about 30 times | did not result in any mobilization of bone calcium | did not result in any activity | – | – | –
– | – | – | C=C1/C(=C\C=C2/CCC[C@]3(C)[C@@H]([C@H](C)CCCC(C)(C)O)CC[C@@H]23)C[C@@H](O)C[C@@H]1O [1,25(OH)2D3, 1α,25-dihydroxyvitamin D3, reference compound] | – | 0.3 | – | – | – | 2 | significant activity | increased serum calcium levels at all dosages
